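Method: 48-hour compound exposure of cells in 96-well plates, five concentrations, linear interpolation of endpoints. TGI: concentration producing complete growth inhibition.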
Key:
Test in all cases: NCI anticancer screen, dose series, 48 h
[1] = tested on: 786-0 renal
[2] = tested on: A549 NSCLC
[3] = tested on: ACHN renal
[4] = tested on: BT-549 breast
[5] = tested on: CAKI-1 renal
[6] = tested on: CCRF-CEM leukemia
[7] = tested on: COLO 205 colon
[8] = tested on: DU-145 prostate
[9] = tested on: EKVX NSCLC
[10] = tested on: HCC-2998 colon
[11] = tested on: HCT-116 colon
[12] = tested on: HCT-15 colon
[13] = tested on: HL-60(TB) leukemia
[14] = tested on: HOP-62 NSCLC
[15] = tested on: HS 578T breast
[16] = tested on: HT29 colon
[17] = tested on: IGROV1 ovarian
[18] = tested on: K-562 leukemia
[19] = tested on: KM12 colon
[20] = tested on: LOX IMVI melanoma
[21] = tested on: M14 melanoma
[22] = tested on: MALME-3M melanoma
[23] = tested on: MCF7 breast
[24] = tested on: MDA-MB-231 breast
[25] = tested on: MDA-MB-435
[26] = tested on: MDA-N
[27] = tested on: MOLT-4 leukemia
[28] = tested on: NCI-H226 lung
[29] = tested on: NCI-H23 lung
[30] = tested on: NCI-H460 lung
[31] = tested on: NCI-H522 lung
[32] = tested on: NCI/ADR-RES ovarian
[33] = tested on: OVCAR-3 ovarian
[34] = tested on: OVCAR-4 ovarian
[35] = tested on: OVCAR-5 ovarian
[36] = tested on: OVCAR-8 ovarian
[37] = tested on: PC-3 prostate
[38] = tested on: RPMI-8226 leukemia
[39] = tested on: RXF 393 renal
[40] = tested on: SF-268 CNS
[41] = tested on: SF-295 CNS
[42] = tested on: SK-MEL-2 melanoma
[43] = tested on: SK-MEL-28 melanoma
[44] = tested on: SK-MEL-5 melanoma
[45] = tested on: SK-OV-3 ovarian
[46] = tested on: SN12C renal
[47] = tested on: SNB-19 CNS
[48] = tested on: SR leukemia
[49] = tested on: SW-620 colon
[50] = tested on: T-47D breast
[51] = tested on: TK-10 renal
[52] = tested on: U251 CNS
[53] = tested on: UACC-257 melanoma
[54] = tested on: UACC-62 melanoma
[55] = tested on: UO-31 renal
[56] = tested on: HOP-92 NSCLC
[57] = tested on: SF-539 CNS
[58] = tested on: SNB-75 CNS

CC(=O)n1[nH]c(=O)n(-c2ccccc2)c1=O
TGI [1]: > 100 µM
TGI [2]: > 100 µM
TGI [3]: > 100 µM
TGI [4]: > 100 µM
TGI [5]: > 100 µM
TGI [6]: > 100 µM
TGI [7]: > 100 µM
TGI [8]: > 100 µM
TGI [9]: > 100 µM
TGI [10]: > 100 µM
TGI [11]: > 100 µM
TGI [12]: > 100 µM
TGI [13]: > 100 µM
TGI [14]: > 100 µM
TGI [15]: > 100 µM
TGI [16]: > 100 µM
TGI [17]: > 100 µM
TGI [18]: > 100 µM
TGI [19]: > 100 µM
TGI [20]: > 100 µM
TGI [21]: > 100 µM
TGI [22]: > 100 µM
TGI [23]: > 100 µM
TGI [24]: > 100 µM
TGI [25]: > 100 µM
TGI [26]: > 100 µM
TGI [27]: > 100 µM
TGI [28]: > 100 µM
TGI [29]: > 100 µM
TGI [30]: > 100 µM
TGI [31]: > 100 µM
TGI [32]: > 100 µM
TGI [33]: > 100 µM
TGI [34]: > 100 µM
TGI [35]: > 100 µM
TGI [36]: > 100 µM
TGI [37]: > 100 µM
TGI [38]: > 100 µM
TGI [39]: > 100 µM
TGI [40]: > 100 µM
TGI [41]: > 100 µM
TGI [42]: > 100 µM
TGI [43]: > 100 µM
TGI [44]: > 100 µM
TGI [45]: > 100 µM
TGI [46]: > 100 µM
TGI [47]: > 100 µM
TGI [48]: > 100 µM
TGI [49]: > 100 µM
TGI [50]: > 100 µM
TGI [51]: > 100 µM
TGI [52]: > 100 µM
TGI [53]: > 100 µM
TGI [54]: > 100 µM
TGI [55]: > 100 µM

COc1cc(C2c3cc4c(cc3OC(NCCO)C2C)OCO4)cc(OC)c1O (configuration not stated)
TGI [1]: > 100 µM
TGI [2]: > 100 µM
TGI [4]: > 100 µM
TGI [5]: > 100 µM
TGI [7]: 84.2 µM
TGI [10]: 21.8 µM
TGI [11]: > 100 µM
TGI [12]: 46.9 µM
TGI [56]: > 100 µM
TGI [16]: > 100 µM
TGI [17]: > 100 µM
TGI [19]: > 100 µM
TGI [21]: > 100 µM
TGI [22]: > 100 µM
TGI [23]: > 100 µM
TGI [24]: > 100 µM
TGI [25]: 6.34 µM
TGI [26]: 4.56 µM
TGI [28]: > 100 µM
TGI [29]: > 100 µM
TGI [33]: > 100 µM
TGI [34]: > 100 µM
TGI [35]: > 100 µM
TGI [36]: > 100 µM
TGI [37]: > 100 µM
TGI [38]: 19 µM
TGI [39]: > 100 µM
TGI [40]: > 100 µM
TGI [41]: > 100 µM
TGI [57]: 42.2 µM
TGI [42]: 36.9 µM
TGI [43]: > 100 µM
TGI [44]: 56.5 µM
TGI [46]: > 100 µM
TGI [47]: > 100 µM
TGI [58]: 77.3 µM
TGI [49]: > 100 µM
TGI [50]: > 100 µM
TGI [51]: > 100 µM
TGI [52]: 87.8 µM
TGI [54]: > 100 µM
TGI [55]: > 100 µM

— PubChem BioAssay (NCI)
